Results reported in patent US9505753B2, “Inhibitors of D-amino acid oxidase” (THE JOHNS HOPKINS UNIVERSITY, priority 2012, dated 2016).

Molecular target: human recombinant D-amino acid oxidase (Homo sapiens (Human), UniProt P14920)
Assay: In vitro D-amino acid oxidase (DAAO) assay, 96-well plate
Type: biochemical
Settings: human recombinant DAAO; D-serine 5 mM, FAD 1 μM, 20 min, room temperature, Tris buffer pH 8.5; read-out: Inhibition of DAAO IC50
Experimental: A reliable 96-well plate D-amino acid oxidase (DAAO) assay was developed based on previously published reports (J. Biol. Chem. 277: 27782 (2002)). […] All reactions were carried out for 20 min at room temperature in a 100-μL volume in Tris buffer (50 mM, pH 8.5). Additionally, stock solutions and serial dilutions of potential DAO inhibitors were made in 10:90 DMSO:buffer with a final assay DMSO concentration of 1%.

human recombinant D-amino acid oxidase, sequence (P14920 whole entry): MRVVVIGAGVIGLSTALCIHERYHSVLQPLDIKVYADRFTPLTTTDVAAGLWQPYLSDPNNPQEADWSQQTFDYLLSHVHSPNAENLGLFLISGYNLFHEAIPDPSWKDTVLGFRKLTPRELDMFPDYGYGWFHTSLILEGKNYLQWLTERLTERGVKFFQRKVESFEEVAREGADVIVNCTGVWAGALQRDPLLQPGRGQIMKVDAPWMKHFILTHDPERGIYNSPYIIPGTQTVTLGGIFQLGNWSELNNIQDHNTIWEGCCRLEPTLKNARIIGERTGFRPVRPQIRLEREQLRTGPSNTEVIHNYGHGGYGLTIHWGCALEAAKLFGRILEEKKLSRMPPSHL

Point of comparison: `O=c1[nH]c(=O)n(CCc2ccccc2F)nc1O` [Compound 5d, 2-(2-Fluorophenethyl)-6-hydroxy-1,2,4-triazine-3,5(2H,4H)-dione], IC50 80 nM. Against it:
- O=c1[nH]c(=O)n(Cc2ccc(-c3ccccc3)cc2)nc1O [Compound 5af, 2-(Biphenyl-4-ylmethyl)-6-hydroxy-1,2,4-triazine-3,5(2H,4H)-dione] — 3.8-fold higher, 300 nM
- CC(Cc1ccccc1)n1nc(O)c(=O)[nH]c1=O (stereo not drawn) [Compound 10k, 6-Hydroxy-2-(1-phenylpropan-2-yl)-1,2,4-triazine-3,5(2H,4H)-dione] — 3.8-fold higher, 300 nM
- O=c1[nH]c(=S)n(CCc2ccccc2)nc1O [Compound 16, 6-Hydroxy-2-phenethyl-3-thioxo-3,4-dihydro-1,2,4-triazin-5(2H)-one] — 1.6-fold lower, 50 nM
- O=c1[nH]c(=O)n(Cc2cccc3ccsc23)nc1O [Compound 10q, 2-(Benzo[b]thiophen-7-ylmethyl)-6-hydroxy-1,2,4-triazine-3,5(2H,4H)-dione] — 25-fold higher, 2000 nM
- O=c1[nH]c(=O)n(Cc2ccc(F)c3ccccc23)nc1O [Compound 25b, 2-((4-Fluoronaphthalen-1-yl)methyl)-6-hydroxy-1,2,4-triazine-3,5(2H,4H)-dione] — 2.5-fold higher, 200 nM
- Cc1cccc(CCn2nc(O)c(=O)[nH]c2=O)c1 [Compound 5i, 6-Hydroxy-2-(3-methylphenethyl)-1,2,4-triazine-3,5(2H,4H)-dione] — within 1.5-fold, 60 nM
- Cc1ccc(CCn2nc(O)c(=O)[nH]c2=O)cc1 [Compound 5h, 6-Hydroxy-2-(4-methylphenethyl)-1,2,4-triazine-3,5(2H,4H)-dione] — within 1.5-fold, 100 nM
- O=c1[nH]c(=O)n(Cc2cccc3cccnc23)nc1O [Compound 25a, 6-Hydroxy-2-(quinolin-8-ylmethyl)-1,2,4-triazine-3,5(2H,4H)-dione] — 38-fold higher, 3000 nM
- O=c1[nH]c(=O)n(CCc2ccc(-c3ccccc3F)cc2)nc1O [Compound 30, 2-(2-(2′-Fluorobiphenyl-4-yl)ethyl)-6-hydroxy-1,2,4-triazine-3,5(2H,4H)-dione] — the same, 80 nM
- O=c1[nH]c(=O)n(CCn2ccc3ccccc32)nc1O [Compound 10e, 2-(2-(1H-indol-1-yl)ethyl)-6-hydroxy-1,2,4-triazine-3,5(2H,4H)-dione] — within 1.5-fold, 100 nM
- O=c1[nH]c(=O)n(CCn2cccc2)nc1O [Compound 10c, 2-(2-(1H-pyrrol-1-yl)ethyl)-6-hydroxy-1,2,4-triazine-3,5(2H,4H)-dione] — within 1.5-fold, 100 nM
- O=c1[nH]c(=O)n(CCc2ccc(Cl)c(Cl)c2)nc1O [Compound 5y, 2-(3,4-Dichlorophenethyl)-6-hydroxy-1,2,4-triazine-3,5(2H,4H)-dione] — 2.7-fold lower, 30 nM
- O=c1[nH]c(=O)n(CCc2ccc(F)c(Cl)c2)nc1O [Compound 5z, 2-(3-Chloro-4-fluorophenethyl)-6-hydroxy-1,2,4-triazine-3,5(2H,4H)-dione] — within 1.5-fold, 60 nM
- O=c1[nH]c(=O)n(CCCc2ccccc2)nc1O [Compound 5s, 6-Hydroxy-2-(3-phenylpropyl)-1,2,4-triazine-3,5(2H,4H)-dione] — 25-fold higher, 2000 nM
- O=c1[nH]c(=O)n(CCN2CCOCC2)nc1O [Compound 10j, 6-Hydroxy-2-(2-morpholinoethyl)-1,2,4-triazine-3,5(2H,4H)-dione] — 12-fold higher, 1000 nM
- O=c1[nH]c(=O)n(CCn2ncc3ccccc32)nc1O [Compound 10h, 2-(2-(1H-indazol-1-yl)ethyl)-6-hydroxy-1,2,4-triazine-3,5(2H,4H)-dione] — 2.5-fold higher, 200 nM
- CN(C)CCn1nc(O)c(=O)[nH]c1=O [Compound 12a, 2-(2-(Dimethylamino)ethyl)-6-hydroxy-1,2,4-triazine-3,5(2H,4H)-dione] — 62-fold higher, 5000 nM
- O=c1[nH]c(=O)n(CCn2cccn2)nc1O [Compound 10d, 2-(2-(1H-pyrazol-1-yl)ethyl)-6-hydroxy-1,2,4-triazine-3,5(2H,4H)-dione] — 3.8-fold higher, 300 nM
- O=c1[nH]c(=O)n(CCn2ccc3cccnc32)nc1O [Compound 10g, 2-(2-(1H-pyrrolo[2,3-b]pyridin-1-yl)ethyl)-6-hydroxy-1,2,4-triazine-3,5(2H,4H)-dione] — 3.8-fold higher, 300 nM
- O=c1[nH]c(=O)n(CCc2cccc(Cl)c2)nc1O [Compound 5f, 2-(3-Chlorophenethyl)-6-hydroxy-1,2,4-triazine-3,5(2H,4H)-dione] — within 1.5-fold, 60 nM
- O=c1[nH]c(=O)n(CCc2ccccc2Cl)nc1O [Compound 5g, 2-(2-Chlorophenethyl)-6-hydroxy-1,2,4-triazine-3,5(2H,4H)-dione] — within 1.5-fold, 100 nM
- O=c1[nH]c(=O)n(CCc2cccc(F)c2)nc1O [Compound 5c, 2-(3-Fluorophenethyl)-6-hydroxy-1,2,4-triazine-3,5(2H,4H)-dione] — within 1.5-fold, 60 nM
- O=c1[nH]c(=O)n(CCc2cccc3ccccc23)nc1O [Compound 5n, 6-Hydroxy-2-(2-(naphthalen-1-yl)ethyl)-1,2,4-triazine-3,5(2H,4H)-dione] — within 1.5-fold, 100 nM
- O=c1[nH]c(=O)n(Cc2ccc3cc(F)ccc3c2)nc1O [Compound 5ab, 2-((6-Fluoronaphthalen-2-yl)methyl)-6-hydroxy-1,2,4-triazine-3,5(2H,4H)-dione] — within 1.5-fold, 100 nM
- O=c1[nH]c(=O)n(CCc2cccc(C(F)(F)F)c2)nc1O [Compound 5l, 6-Hydroxy-2-(3-(trifluoromethyl)phenethyl)-1,2,4-triazine-3,5(2H,4H)-dione] — within 1.5-fold, 90 nM
- O=c1[nH]c(=O)n(C[C@@H]2C[C@H]2c2ccccc2)nc1O [Compound 10n, 6-Hydroxy-2-(((1R,2R)-2-phenylcyclopropyl)methyl)-1,2,4-triazine-3,5(2H,4H)-dione] — 5-fold higher, 400 nM
- COc1ccccc1CCn1nc(O)c(=O)[nH]c1=O [Compound 5v, 6-Hydroxy-2-(2-methoxyphenethyl)-1,2,4-triazine-3,5(2H,4H)-dione] — 2.5-fold higher, 200 nM
- O=c1[nH]c(=O)n(CCc2cccc(O)c2)nc1O [Compound 5wp, 6-Hydroxy-2-(3-hydroxyphenethyl)-1,2,4-triazine-3,5(2H,4H)-dione] — within 1.5-fold, 100 nM
- O=c1[nH]c(=O)n(CCc2ccc(F)c(F)c2)nc1O [Compound 10b, 2-(3,4-Difluorophenethyl)-6-hydroxy-1,2,4-triazine-3,5(2H,4H)-dione] — 2-fold lower, 40 nM
- O=c1[nH]c(=O)n(CCN2CCc3ccccc3C2)nc1O [Compound 12d, 2-(2-(3,4-Dihydroisoquinolin-2(1H)-yl)ethyl)-6-hydroxy-1,2,4-triazine-3,5(2H,4H)-dione] — 8.8-fold higher, 700 nM
- O=c1[nH]c(=O)n(CCc2ccc(C(F)(F)F)cc2)nc1O [Compound 5k, 6-Hydroxy-2-(4-(trifluoromethyl)phenethyl)-1,2,4-triazine-3,5(2H,4H)-dione] — the same, 80 nM
- Cc1ccc(Cn2nc(O)c(=O)[nH]c2=O)c2ccccc12 [Compound 25c, 6-Hydroxy-2-((4-methylnaphthalen-1-yl)methyl)-1,2,4-triazine-3,5(2H,4H)-dione] — 12-fold higher, 1000 nM
- CC(C)CCn1nc(O)c(=O)[nH]c1=O [Compound 5q, 6-Hydroxy-2-isopentyl-1,2,4-triazine-3,5(2H,4H)-dione] — 3.8-fold higher, 300 nM
- Cc1ccccc1CCn1nc(O)c(=O)[nH]c1=O [Compound 5j, 6-Hydroxy-2-(2-methylphenethyl)-1,2,4-triazine-3,5(2H,4H)-dione] — within 1.5-fold, 60 nM
- O=c1[nH]c(=O)n(CCc2ccccn2)nc1O [Compound 10l, 6-Hydroxy-2-(2-(pyridin-2-yl)ethyl)-1,2,4-triazine-3,5(2H,4H)-dione] — 11-fold higher, 900 nM
- O=c1[nH]c(=O)n(Cc2cccc3cnccc23)nc1O [Compound 10p, 6-Hydroxy-2-(isoquinolin-5-ylmethyl)-1,2,4-triazine-3,5(2H,4H)-dione] — 3.8-fold higher, 300 nM
- O=c1[nH]c(=O)n(CCc2ccccc2O)nc1O [Compound 5vp, 6-Hydroxy-2-(2-hydroxyphenethyl)-1,2,4-triazine-3,5(2H,4H)-dione] — within 1.5-fold, 60 nM
- O=c1[nH]c(=O)n(Cc2ccccc2)nc1O [Compound 5t, 2-Benzyl-6-hydroxy-1,2,4-triazine-3,5(2H,4H)-dione] — 110-fold higher, 9000 nM
- O=c1[nH]c(=O)n(CCc2ccc(O)cc2)nc1O [Compound 5xp, 6-Hydroxy-2-(4-hydroxyphenethyl)-1,2,4-triazine-3,5(2H,4H)-dione] — within 1.5-fold, 100 nM
- O=c1[nH]c(=O)n(Cc2ccc(Oc3ccccc3F)cc2)nc1O [Compound 5ae, 2-(4-(2-Fluorophenoxyl)benzyl)-6-hydroxy-1,2,4-triazine-3,5(2H,4H)-dione] — 3.8-fold higher, 300 nM
- O=c1[nH]c(=O)n(CCc2ccc(F)cc2)nc1O [Compound 5b, 2-(4-Fluorophenethyl)-6-hydroxy-1,2,4-triazine-3,5(2H,4H)-dione] — within 1.5-fold, 60 nM
- CC(C)N1CCN(CCn2nc(O)c(=O)[nH]c2=O)CC1 [Compound 12b, 6-Hydroxy-2-(2-(4-isopropylpiperazin-1-yl)ethyl)-1,2,4-triazine-3,5(2H,4H)-dione] — 110-fold higher, 9000 nM
- O=c1[nH]c(=O)n(Cc2cccc3[nH]ccc23)nc1O [Compound 10o, 2-((1H-indol-4-yl)methyl)-6-hydroxy-1,2,4-triazine-3,5(2H,4H)-dione] — 2.5-fold higher, 200 nM
- CC(C)(C)CCn1nc(O)c(=O)[nH]c1=O [Compound 5r, 2-(3,3-Dimethylbutyl)-6-hydroxy-1,2,4-triazine-3,5(2H,4H)-dione] — 500-fold higher, 40000 nM
- O=c1[nH]c(=O)n(Cc2cccc3c(F)cccc23)nc1O [Compound 10s, 2-((5-Fluoronaphthalen-1-yl)methyl)-6-hydroxy-1,2,4-triazine-3,5(2H,4H)-dione] — the same, 80 nM
- O=c1[nH]c(=O)n(CC(O)c2ccccc2)nc1O (stereo not drawn) [Compound 21, 6-Hydroxy-2-(2-hydroxy-2-phenylethyl)-1,2,4-triazine-3,5(2H,4H)-dione] — 12-fold higher, 1000 nM

Same assay, conditions: read-out: Inhibition of DAAO IC50

`COc1ccc(CCn2nc(O)c(=O)[nH]c2=O)cc1` [Compound 5x, 6-Hydroxy-2-(4-methoxyphenethyl)-1,2,4-triazine-3,5(2H,4H)-dione] gave an IC50 of 100 nM.
